# Results from patent publication US12497365B2, “4-pyridinyl formamide compound or derivative thereof, preparation method therefor, herbicidal composition and use thereof” (Qingdao Kingagroot Chemical Compound Co., Ltd., priority 2019, dated 2025).
# Assays:
# Test in all cases: Weeding effect in post-emergence stage
# Format in all cases: in vivo
# Conditions in all cases: active ingredient 2000 g/ha, 3 weeks after application, fresh weight control rate
# [1] = tested on: Abutilon theophrasti
# Description: (§1) The activity level criteria for plant damage (i.e., growth control rate) are as follows:
# (§2) The above growth control rates are fresh weight control rates.
# (§3) Experiment on weeding effect in post-emergence stage: monocotyledonous and dicotyledonous weed seeds and major crop seeds (wheat, corn, rice, soybean, cotton, oilseed rape, millet, sorghum) were placed in plastic pots filled with soil, then covered with 0.5-2 cm of soil, allowed to grow in a good greenhouse environment. After 2 weeks of sowing, the test plants were treated in the 2-3 leaf stage. The tested compounds of the present invention were respectively dissolved in acetone at the dosage of 2000, 1000, 500, 250, 125 g/ha, then added with Tween 80 and 1.5 liter/ha of emulsifiable concentrate of methyl oleate as synergist, diluted with a certain amount of water to obtain a solution with a certain concentration, and sprayed with a spray tower onto the plants. After the application, the plants were cultured for 3 weeks in the greenhouse, and then the experimental results were listed in Table 1.
# [2] = tested on: Amaranthus retroflexus L.
# Description: as §1, §2, §3
# [3] = tested on: Chenopodium album
# Description: as §1, §2, §3
# [4] = tested on: Descurainia sophia
# Description: as §1, §2, §3
SMILES,"Weeding effect, activity level (growth control rate), Abutilon theophrasti [1]","Weeding effect, activity level (growth control rate), Amaranthus retroflexus L. [2]","Weeding effect, activity level (growth control rate), Chenopodium album [3]","Weeding effect, activity level (growth control rate), Descurainia sophia [4]"
Cn1nnnc1NC(=O)c1ccnc(-c2ccc(Cl)c(Cl)c2)c1Cl [Compound 1-88],5 (Level 5: growth control rate is above 85%),5 (Level 5: growth control rate is above 85%),5 (Level 5: growth control rate is above 85%),5 (Level 5: growth control rate is above 85%)
CN(C)C(=O)c1ccc(-c2nccc(C(=O)Nc3nnnn3C)c2Cl)cc1 [Compound 1-1925],5 (Level 5: growth control rate is above 85%),5 (Level 5: growth control rate is above 85%),5 (Level 5: growth control rate is above 85%),5 (Level 5: growth control rate is above 85%)
Cn1nnnc1NC(=O)c1ccnc(-c2ccc[nH]2)c1Cl [Compound 1-2006],5 (Level 5: growth control rate is above 85%),5 (Level 5: growth control rate is above 85%),5 (Level 5: growth control rate is above 85%),5 (Level 5: growth control rate is above 85%)
Cn1nnnc1NC(=O)c1ccnc(-c2ccc(F)cc2)c1F [Compound 1-195],5 (Level 5: growth control rate is above 85%),5 (Level 5: growth control rate is above 85%),5 (Level 5: growth control rate is above 85%),5 (Level 5: growth control rate is above 85%)
Cn1nnnc1NC(=O)c1ccnc(-c2ccc(I)cc2)c1Cl [Compound 1-25],5 (Level 5: growth control rate is above 85%),5 (Level 5: growth control rate is above 85%),5 (Level 5: growth control rate is above 85%),5 (Level 5: growth control rate is above 85%)
Cn1nnnc1NC(=O)c1ccnc(-c2cnoc2)c1Cl [Compound 1-193],5 (Level 5: growth control rate is above 85%),5 (Level 5: growth control rate is above 85%),5 (Level 5: growth control rate is above 85%),5 (Level 5: growth control rate is above 85%)
COc1ccc(-c2nccc(C(=O)Nc3nnnn3C)c2Cl)cc1C=O [Compound 1-99],5 (Level 5: growth control rate is above 85%),5 (Level 5: growth control rate is above 85%),5 (Level 5: growth control rate is above 85%),5 (Level 5: growth control rate is above 85%)
C=CC(=O)Nc1cccc(-c2nccc(C(=O)Nc3nnnn3C)c2Cl)c1 [Compound 1-48],5 (Level 5: growth control rate is above 85%),5 (Level 5: growth control rate is above 85%),5 (Level 5: growth control rate is above 85%),5 (Level 5: growth control rate is above 85%)
Cn1nnnc1NC(=O)c1ccnc(-c2ccn[nH]2)c1Cl [Compound 1-177],5 (Level 5: growth control rate is above 85%),5 (Level 5: growth control rate is above 85%),5 (Level 5: growth control rate is above 85%),5 (Level 5: growth control rate is above 85%)
Cn1nnnc1NC(=O)c1ccnc(-c2cccc3ccccc23)c1Cl [Compound 1-111],5 (Level 5: growth control rate is above 85%),5 (Level 5: growth control rate is above 85%),5 (Level 5: growth control rate is above 85%),5 (Level 5: growth control rate is above 85%)
Cn1nnnc1NC(=O)c1ccnc(-c2ccc(Br)cc2)c1Cl [Compound 1-22],5 (Level 5: growth control rate is above 85%),5 (Level 5: growth control rate is above 85%),5 (Level 5: growth control rate is above 85%),5 (Level 5: growth control rate is above 85%)
Cn1nnnc1NC(=O)c1ccnc(-c2cc(C(F)(F)F)cc(C(F)(F)F)c2)c1Cl [Compound 1-77],5 (Level 5: growth control rate is above 85%),5 (Level 5: growth control rate is above 85%),5 (Level 5: growth control rate is above 85%),5 (Level 5: growth control rate is above 85%)
Cn1nnnc1NC(=O)c1ccnc(-c2ccc(C#N)s2)c1Cl [Compound 1-192],5 (Level 5: growth control rate is above 85%),5 (Level 5: growth control rate is above 85%),5 (Level 5: growth control rate is above 85%),5 (Level 5: growth control rate is above 85%)
Cn1ncnc1NC(=O)c1ccnc(-c2ccc(F)cc2)c1Cl [Compound 1-334],5 (Level 5: growth control rate is above 85%),5 (Level 5: growth control rate is above 85%),5 (Level 5: growth control rate is above 85%),5 (Level 5: growth control rate is above 85%)
Cn1nnnc1NC(=O)c1ccnc(-c2cccc(C(F)(F)F)c2)c1Cl [Compound 1-26],5 (Level 5: growth control rate is above 85%),5 (Level 5: growth control rate is above 85%),5 (Level 5: growth control rate is above 85%),5 (Level 5: growth control rate is above 85%)
Cn1nnnc1NC(=O)c1ccnc(C(C)(C)C)c1Cl [Compound 1-2],5 (Level 5: growth control rate is above 85%),5 (Level 5: growth control rate is above 85%),5 (Level 5: growth control rate is above 85%),5 (Level 5: growth control rate is above 85%)
Cn1nnnc1NC(=O)c1ccnc(-c2cnc(N)nc2)c1Cl [Compound 1-160],5 (Level 5: growth control rate is above 85%),5 (Level 5: growth control rate is above 85%),5 (Level 5: growth control rate is above 85%),5 (Level 5: growth control rate is above 85%)
CSc1c(C(=O)Nc2nnnn2C)ccnc1-c1ccc(C#N)cc1 [Compound 1-2052],5 (Level 5: growth control rate is above 85%),5 (Level 5: growth control rate is above 85%),5 (Level 5: growth control rate is above 85%),5 (Level 5: growth control rate is above 85%)
Cn1nnnc1NC(=O)c1ccnc(-c2ccc(CBr)cc2)c1Cl [Compound 1-24],5 (Level 5: growth control rate is above 85%),5 (Level 5: growth control rate is above 85%),5 (Level 5: growth control rate is above 85%),5 (Level 5: growth control rate is above 85%)
Cn1nnnc1NC(=O)c1ccnc(-c2cccc(Cl)c2)c1Cl [Compound 1-19],5 (Level 5: growth control rate is above 85%),5 (Level 5: growth control rate is above 85%),5 (Level 5: growth control rate is above 85%),5 (Level 5: growth control rate is above 85%)
Cc1nn(C)cc1-c1nccc(C(=O)Nc2nnnn2C)c1Cl [Compound 1-169],5 (Level 5: growth control rate is above 85%),5 (Level 5: growth control rate is above 85%),5 (Level 5: growth control rate is above 85%),5 (Level 5: growth control rate is above 85%)
